Data reported in publication PMC7551609 (Viruses, 2020).
“Also recorded” adds a separate entry of the source. Where a name gives a salt, the structure may show the parent alone. Read-outs that look alike come from different tables or passages of the source.

Columns and labels:
[1] = tested on: Vero cells; assay: MTT cell viability assay in Vero cells; assay type: cell-based, African green monkey; details: non-infected Vero cells, 36 h post-treatment
[2] = tested on: Vero cells; assay: XTT cell proliferation assay in Vero cells; assay type: cell-based, African green monkey; details: non-infected Vero cells, 36 h post-treatment
[3] = tested on: ZIKV Paraiba/2015; assay: Viral inhibition assay, post-infection treatment, Vero cells; assay type: cell-based, Zika virus; details: for EC50: ZIKV Paraiba/2015, Vero cells, post-infection treatment, 36 h; for inhibitor category based on SI-MTT and SI-XTT: post-treatment, Paraiba/2015, Vero; for MIC: read-out: Post-treatment MIC (maximum effective concentration)
[4] = tested on: ZIKV Paraiba/2015; assay: Viral inhibition assay, pre-treatment (prophylactic), Vero cells; assay type: cell-based, Zika virus; details: for EC50: ZIKV Paraiba/2015, Vero cells, pre-treatment 12 h before infection; for inhibitor category based on SI-MTT / inhibitor category based on SI-XTT: pre-treatment, Paraiba/2015, Vero; for MIC: read-out: Pre-treatment MIC (maximum effective concentration)
[5] = tested on: ZIKV Paraiba/2015; assay: Viral inhibition assay, co-treatment, Vero cells; assay type: cell-based, Zika virus; details: for Co-treatment MIC (maximum effective concentration): Vero cells, ZIKV Paraiba/2015, co-treatment
[6] = tested on: ZIKV MR-766 strain; assay: Viral inhibition assay, post-treatment, old World strain, Vero cells; assay type: cell-based, Zika virus; details: for inhibitor category based on SI-MTT and SI-XTT: ZIKV MR-766, Vero; for EC50: old World ZIKV MR-766, Vero cells, post-treatment; for MIC: old World ZIKV MR-766 strain, read-out: MR766 MIC (maximum effective concentration)
[7] = tested on: ZIKV PRVABC59 strain; assay: Viral inhibition assay, post-treatment, new World strain, Vero cells; assay type: cell-based, Zika virus; details: for inhibitor category based on SI-MTT and SI-XTT: ZIKV PRVABC59, Vero; for EC50: new World ZIKV PRVABC59, Vero cells, post-treatment, 48 h; for MIC: read-out: PRVABC59 MIC (maximum effective concentration)
[8] = tested on: ZIKV Paraiba/2015; assay: Viral inhibition assay, post-treatment, human A549 cells; assay type: cell-based, Zika virus; details: for inhibitor category based on SI-MTT and SI-XTT: Paraiba/2015, A549 cells; for EC50: ZIKV Paraiba/2015, A549 cells, post-treatment, 36 h; for MIC: in Homo sapiens, read-out: A549 cells MIC (maximum effective concentration)
[9] = tested on: A549 cells; assay: MTT cell viability in A549 cells; assay type: cell-based, human; details: highest concentration used 50.00 µM, sentence also cites [17]
[10] = tested on: A549 cells; assay: XTT cell proliferation in A549 cells; assay type: cell-based, human; details: highest concentration used 50.00 µM, sentence also cites [17]
[11] = tested on: ZIKV Paraiba/2015; assay: Growth kinetics inhibition assay (infectious viral progeny), Vero cells; assay type: cell-based, Zika virus
[12] = MTT cell viability assay in Vero cells; assay type: cell-based, African green monkey; details: African green monkey, confluent monolayers; non-infected Vero cells, 36 h post-treatment
[13] = XTT cell proliferation assay in Vero cells; assay type: cell-based, African green monkey; details: African green monkey, confluent monolayers; non-infected Vero cells, 36 h post-treatment
[14] = MTT cell viability in A549 cells; assay type: cell-based, human; details: human, highest concentration used 50.00 µM, sentence also cites [17]
[15] = XTT cell proliferation in A549 cells; assay type: cell-based, human; details: human, highest concentration used 50.00 µM, sentence also cites [17]
[16] = tested on: ZIKV MR-766; details: ZIKV MR-766, Vero cells; cited from earlier work
[17] = tested on: ZIKV MR-766; details: ZIKV MR-766, Vero cells, pre-treatment conditions; cited from earlier work
[18] = tested on: ZIKV-MEX-2-81; details: ZIKV MEX-2-81, U2OS cells; cited from earlier work
[19] = tested on: ZIKV PRVABC59; details: ZIKV PRVABC59, Vero cells; cited from earlier work
[20] = tested on: ZIKV SL1602 strain; details: ZIKV SL1602, Vero cells; cited from earlier work
[21] = tested on: ZIKV MEX_I_7 strain; details: ZIKV MEX_I_7, Huh7, HeLa and HAEC cells; cited from earlier work
[22] = tested on: ZIKV cocktail of MR-766, FSS13025, and MEX-2-81 strains; details: JEG-3 and HBME cells; cited from earlier work
[23] = co-treatment, Paraiba/2015, Vero
[24] = Zika virus, new World ZIKV PRVABC59
[25] = 0.1, 1, 10 EC50, all time points (24, 48, 72 h post-treatment), MOI 0.1

Compound	inhibitor category based on SI-MTT and SI-XTT [3]	inhibitor category based on SI-MTT [4]	inhibitor category based on SI-XTT [4]	Co-treatment MIC (maximum effective concentration) [5] [µM]	inhibitor category based on SI-MTT [5, 23]	inhibitor category based on SI-MTT and SI-XTT [5, 23]	inhibitor category based on SI-MTT and SI-XTT [6]	inhibitor category based on SI-MTT and SI-XTT [7]	inhibitor category based on SI-MTT and SI-XTT [8]	CC50 at 36 h [12] [µM]	CC50 at 36 h [13] [mM]	EC50 [3] [nM]	EC50 ([3]; Zika virus, Vero) [nM]	MIC ([3]; Zika virus) [µM]	MIC ([4]; Zika virus) [µM]	EC50 ([4]; Zika virus) [µM]	EC50 ([6]; Zika virus) [nM]	MIC ([6]; Zika virus) [µM]	EC50 ([7]; Zika virus) [nM]	MIC [7, 24] [µM]	other results
2′,3′,5′-Triacetyl-6-azauridine [Azaribine]	most potent; also recorded: potent	moderate	weakest and weak	> 100.00	Potent	potent	weak	moderate	weak												CC50 [1]: 237 µM; CC50 [2]: > 1.35 mM; Post-treatment MIC (maximum effective concentration) ([3]; Vero cells, ZIKV Paraiba/2015, post-treatment): > 100.00 µM; EC50 ([3]; read-out: EC50): 1620 nM; Pre-treatment MIC (maximum effective concentration) ([4]; Vero cells, ZIKV Paraiba/2015, pre-treatment): > 100.00 µM; EC50 [4]: 47.3 µM; EC50 ([5]; ZIKV Paraiba/2015, Vero cells, co-treatment (virus pre-incubated with compound 1 h), read-out: EC50): 2590 nM; inhibitor category based on SI-XTT [5, 23]: potent; EC50 [6]: 2430 nM; MIC [6]: < 11.10 µM; PRVABC59 MIC (maximum effective concentration) ([7]; new World ZIKV PRVABC59): < 11.10 µM; EC50 [7]: 1120 nM; A549 cells MIC (maximum effective concentration) ([8]; A549 cells): < 11.10 µM; EC50 [8]: 680 nM; CC50 [9]: > 50 µM; CC50 [10]: > 50 µM; effect on production of infectious viral progeny (viral titers) ([11]; 24 h post-treatment and at 10 EC50 at 48 and 72 h post-treatment): significant effect
Cc1c(-c2ccc(-c3ccccc3F)cc2)nc2ccc(F)cc2c1C(=O)O [Brequinar, Brequinar sodium salt hydrate]	most potent; also recorded: potent	moderate	weakest and weak	< 33.30		moderate	most potent; also recorded: potent	potent	Potent	238	> 1.35	1510	1030	> 100	> 100	42.5	50	< 0.13	80	< 0.41	MIC ([8]; Zika virus): < 0.04 µM; EC50 ([8]; Zika virus): 20 nM; CC50 [14]: > 50 µM; CC50 [15]: > 50 µM; effect on production of infectious viral progeny (viral titers) [11, 25]: dose-dependent inhibitory effect; effect on production of infectious viral progeny (viral titers) ([11]; 10 EC50, 24 and 48 h post-treatment): Complete inhibition; EC50 [16]: 80 nM; EC50 [17]: 300 nM
COc1c(C)c2c(c(O)c1C/C=C(\C)CCC(=O)O)C(=O)OC2 [Mycophenolic acid]	moderate to weak	Potent; also recorded: moderate	potent	< 11.10	weak	weak	most potent; also recorded: potent	potent	weak	275	> 1.35	4260	4340	> 100	> 100	7.58	150	< 1.23	220	< 1.23	MIC ([8]; Zika virus): < 11.1 µM; EC50 ([8]; Zika virus): 650 nM; CC50 [14]: > 50 µM; CC50 [15]: > 50 µM; effect on production of infectious viral progeny (viral titers) [11, 25]: dose-dependent inhibitory effect; EC50 [18]: 400 nM; EC50 [16]: 110 nM; EC50 [19]: 140 nM; EC50 [20]: 420 nM; EC50 [21]: < 2000 nM; EC50 [22]: 100 nM
